Source: patent US20260373186A1 (Mireca Medicines GmbH, priority 2022, published 2026)
Where a name gives a salt, the structure may show the parent alone. Read-outs that look alike come from different tables or passages of the source.

Legend:
[1] = Drug loading of Compound 188-loaded microparticles (HPLC); type: physicochemical; settings: 99% PLGA75125 4A and 1% PLGA5050-PEG5K
[2] = In vitro drug release from Compound 188-loaded microparticles; type: physicochemical; settings: 99% PLGA75125 4A and 1% PLGA5050-PEG5K, PBS with 1% Tween 20, 37 °C
[3] = Drug loading of Compound 221-loaded implants (HPLC); type: physicochemical; settings: implants (hot melt extrusion), 99% PLGA75125 4A and 1% PLGA5050-PEG5K
Experimental: (§1) Compound 221 and biodegradable polymer excipients including PLGA and PLGA-PEG were weighed and thoroughly premixed in a sealed container. The powder blend was fed into an extruder (HAAKE Twin Screw Compounder, Thermo Fisher Scientific), which was pre-set to a temperature of 80-90 °C and a screw speed of 150 rpm. The blend was heated in the extruder and recirculated in the extruder chamber through an internal loop channel for a pre-set duration (e.g., 2-30 min). The filament was extruded at pre-set screw speed (e.g, 10-300 rpm) through a die, guided by a conveying belt and cut into desired length (3-10 mm) for further testing.
(§2) The drug loading of the implants was quantitated by HPLC.

[4] = In vitro drug release from Compound 221-loaded implants; type: physicochemical; settings: implants (hot melt extrusion), 99% PLGA75125 4A and 1% PLGA5050-PEG5K; PBS with 1% Tween 20, 37 °C
Experimental: as §1, §2

[5] = Drug loading of Compound 221-loaded microparticles (HPLC); settings: 99% PLGA75125 4A and 1% PLGA5050-PEG5K
[6] = In vitro drug release from Compound 221-loaded microparticles; settings: 99% PLGA75125 4A and 1% PLGA5050-PEG5K, PBS with 1% Tween 20, 37 °C
[7] = tested on: photoreceptors of rd1 explants; test: Photoreceptor cell death in rd1 retinal explants (TUNEL); type: cell-based; settings: Mus musculus
Text: Legend: The animals at the age of postnatal day 5 (PN5) were killed by decapitation and retinas were dissected out with retinal pigment epithelium attached as described previously (Caffe, A. R.; Ahuja, P.; Holmqvist, B.; Azadi, S.; Forsell, J.; Holmqvist, I.; Soderpalm, A. K.; van Veen, T., Mouse retina explants after long-term culture in serum free medium. J Chem Neuroanat 2001, 22 (4), 263-73). The retinas were flattened out on the membranes of commercially available 6-well culture inserts, after which 1.5 ml of a custom made culturing medium was added to each well. These explants were then kept in culture for two days without any treatment after which the test analog of the invention at the desired concentration was added at a medium change at PN7 (“7” in Figure). […]
Legend: Effects of selected analogs at given concentrations of the invention on the cell death of photoreceptors of rd1 explants. The cell death was assessed by so called TUNEL stain on fixated and sectioned material, after which the number of dying cells was counted and analyzed, and compared with that from untreated rd1 explants. In order to allow more direct comparisons between the different analogs and concentrations a ratio of treated/untreated specimens was calculated. […]

[8] = tested on: cGMP dependent protein kinase; settings: cited from earlier work
[9] = tested on: rd1 and rd2 photoreceptors; settings: in vitro; cited from earlier work
[10] = tested on: rd1 and rd2 photoreceptors; settings: in vivo mouse retinitis pigmentosa models; cited from earlier work

## Cc1ccc(-c2cn3c(=O)c4nc(Br)n([C@@H]5O[C@@H]6CO[P@@](=O)(S)O[C@H]6[C@H]5O)c4nc3[nH]2)cc1 [Compound 188-BEN, 8-bromo-(4-methyl-β-phenyl-1,N^2-etheno)guanosine-3′,5′-cyclic monophosphorothioate, Rp-isomer, N-benzyl-2-phenylethan-1-aminium salt]
[1]; target drug loading 30%
  Compound 188 loading (w/w): 26%
[2]; target drug loading 30%
  Release duration: 29 days

## Cc1ccc(-c2cn3c(=O)c4nc(Br)n([C@@H]5O[C@@H]6CO[P@@](=O)(S)O[C@H]6[C@H]5O)c4nc3[nH]2)cc1 [Compound 188-BEZ, 8-bromo-(4-methyl-β-phenyl-1,N^2-etheno)guanosine-3′,5′-cyclic monophosphorothioate, Rp-isomer, N-benzyl-2-(benzylamino)ethan-1-aminium salt]
[1]; target drug loading 20%
  Compound 188 loading (w/w): 19.6%
[2]; target drug loading 20%, in 49 days
  Release duration: % released in 49 days: 32% released

## Cc1ccc(-c2cn3c(=O)c4nc(Br)n([C@@H]5O[C@@H]6CO[P@@](=O)(S)O[C@H]6[C@H]5O)c4nc3[nH]2)cc1 [Compound 188-Ca]
[1]; target drug loading 30%
  Compound 188 loading (w/w): 3%

## O=c1c2nc(Br)n([C@@H]3O[C@@H]4CO[P@@](=O)(S)O[C@H]4[C@H]3O)c2nc2[nH]c(-c3ccccc3)cn12 [Compound 221-BEN, 8-bromo-(β-phenyl-1,N^2-etheno)guanosine-3′,5′-cyclic monophosphorothioate, Rp-isomer, N-benzyl-2-phenylethan-1-aminium salt]
[3]
  Compound 221 loading (w/w): 30.0%
[4]
  Release duration: 40 days
[5]; target drug loading 30%
  Compound 221 loading (w/w): 22.5%
[6]; target drug loading 30%
  Release duration: 43 days

## O=c1c2nc(Br)n([C@@H]3O[C@@H]4CO[P@@](=O)(S)O[C@H]4[C@H]3O)c2nc2[nH]c(-c3ccccc3)cn12 [Compound 221-BEZ, 8-bromo-(β-phenyl-1,N^2-etheno)guanosine-3′,5′-cyclic monophosphorothioate, Rp-isomer which is N-benzyl-2-(benzylamino)ethan-1-aminium salt]
[3]
  Compound 221 loading (w/w): 30.0%
[4]
  Release duration: 40 days
[5]; target drug loading 30%
  Compound 221 loading (w/w): 14.0%
[6]; target drug loading 30%
  Release duration: 35 days

## O=c1c2nc(Br)n([C@@H]3O[C@@H]4CO[P@@](=O)(S)O[C@H]4[C@H]3O)c2nc2[nH]c(-c3ccccc3)cn12 [Compound 221-Ca]
[3]
  Compound 221 loading (w/w): 30.0%
[4]
  Release duration: 40 days

## O=c1c2nc(Br)n([C@@H]3O[C@@H]4CO[P@@](=O)(S)O[C@H]4[C@H]3O)c2nc2[nH]c(-c3ccccc3)cn12 [Compound 221-FA]
[3]
  Compound 221 loading (w/w): 10.5%
[4]
  Release duration: 26 days
[5]; target drug loading 10%
  Compound 221 loading (w/w): 1.2%
[6]; target drug loading 10%
  Release duration: 22 days

## O=c1c2nc(Br)n([C@@H]3O[C@@H]4CO[P@@](=O)(S)O[C@H]4[C@H]3O)c2nc2[nH]c(-c3ccccc3)cn12 [Compound 221-Na]
[3]
  Compound 221 loading (w/w): 17.4%
[4]
  Release duration: 14 days

## O=c1c2nc(Br)n([C@@H]3O[C@@H]4CO[P@@](=O)(S)O[C@H]4[C@H]3O)c2nc2[nH]c(-c3ccccc3)cn12 [Compound 221-TEA]
[3]
  Compound 221 loading (w/w): 15.75%
[4]
  Release duration: 40 days
[5]; target drug loading 10%
  Compound 221 loading (w/w): 1.8%
[6]; target drug loading 10%
  Release duration: 35 days

## O=c1c2nc(Br)n([C@@H]3O[C@@H]4CO[P@@](O)(=S)O[C@H]4[C@H]3O)c2nc2[nH]c(-c3ccccc3)cn12 [Rp-8-Br-PET-cGMPS]
[7]; TUNEL, untreated = 1.0, n = 8, read-out: effect ratio of treated/untreated specimens (photoreceptor cell death)
  photoreceptor cell death, % of untreated at 50 µM: ~78%
[7]; vs untreated, read-out: reduction of photoreceptor cell death
  inhibition at 50 µM: > 20%
[8]
  efficacy / agonistic properties: suboptimal efficacies or even partially agonistic properties

## Nc1nc2c(nc(Br)n2[C@@H]2O[C@@H]3COP(O)(=S)O[C@H]3[C@H]2O)c(=O)[nH]1 (stereo partly drawn) [Rp-8-Br-cGMPS]
[9]
  protection for rd1 and rd2 photoreceptors: some protection
[10]
  protection for rd1 and rd2 photoreceptors: some protection
